A short description of assay [1]: 65Zn2+ binding to immobilized peptide (dot-blot, Scatchard competition analysis). As to conditions: unlabeled metal ions 50 μM total. As for the experimental part:
^65Zn^2+ Binding Studies—Dissolved peptides (1.2 nMol, unless other wise stated) were dot-blotted onto polyvinylidene difluoride membrane (0.2-μm pore size; Pierce Chemical Co.), washed twice with chelating buffer (200 μl×100 mM NaCl, 20 mM Tris-HCl, 1 mM EDTA, pH 7.4), then five times with blocking buffer (200 μl×100 mM NaCl, 20 mM Tris-HCl, 1 mM MnCl2, pH 7.4), and then incubated (60 min, 20° C.) with ^65Zn (unless otherwise stated 130,000 cpm, […] ^65ZnCl2 in 200 μl of blocking buffer±competing metal ion chloride). The dot-blot was then washed with blocking buffer (5×200 μl), the dot excised, placed in a test tube, and assayed by γ-counting (11% efficiency). The equilibration volume for stoichiometry estimates was regarded as 6×200 μl. The 214 nm UV absorbance of the unbound flow-through was assayed to determine the total amount of peptide remaining bound onto the membrane. […] To alter the pH, the ^65Zn incubation was carried out in the presence of 100 mM buffer: MOPS (pH 6.5-7.0), MES (pH 5.0-6.0), acetate (pH 3.5-4.5). The dot-blot apparatus was washed with detergent and EDTA (50 mM) then rinsed and siliconized between use.
Aliquots of Aβ were incubated (60 min) with ^65Zn^2+ in the presence of varying concentrations of unlabeled Zn^2+ (0.01-50 μM total). Values shown are means±S.D., n≧3. […] (FIG. 1b) depicts specificity of the Zn^2+ binding site for various metals. Aβ was incubated (60 min) with ^65 Zn^2+ (157 nM, 138,000 cpm) and competing unlabeled metal ions (50 μM total). […] Percent binding of total counts ^65Zn^2+/min added is corrected for the amounts (in nanomoles) of peptides adhering to the membrane. […] 157 nM ^65Zn (138,000 cpm) is used in this experiment to probe immobilized peptide (1.6 nmol).

Another assay concerns the target T1, human Aβ1-40 (Homo sapiens, UniProt P05067).
T1 construct: made in house; host or cells: chemical synthesis (solid-phase Fmoc)
Briefly: Human Aβ1-40 aggregation (0.2μ filtration) after incubation with various metal ions. It is filed as physicochemical. As to conditions: metal ions 3 μM, equimolar basis, peptide 1.6 μM. From the text: The atomic number of the metal species is indicated. […] Data points are in duplicate.

For a further assay, the system named is trypsin. Briefly: Trypsin activity, Z-Arg-amido-4-methylcoumarin fluorescent cleavage product. The note with it: Zn^2+ up to 100 μM in TBS. It is filed as biochemical. As for the experimental part: Tryptic Digestion of Aβ-Aβ1-40 (13.9 μg) was incubated with Zn^2+ ([…] in blocking buffer, 1 h, 37° C.) and then digested with trypsin (12 ng, 3 h, 37° C.). The reaction was stopped by adding SDS sample buffer containing phenylmethylsulfonyl fluoride (1 mM), boiling the samples (5 min), and applying the samples to Tris/Tricine gel electrophoresis and transfer. The blot was washed with EDTA, Coomassie-stained, incubated with ^65Zn^2+, individual bands were excised, assayed for ^65Zn^2+ binding, and N-terminal sequenced to confirm the identity of the digestion products. The effects of Zn^2+ (up to 100 μM in TBS) on the activity of trypsin, itself, were assayed by assay of Z-Arg-amido-4-methylcoumarin (Sigma) fluorescent cleavage product and determined to be negligible.

Structures are written as SMILES.

T1 sequence (P05067 672-711): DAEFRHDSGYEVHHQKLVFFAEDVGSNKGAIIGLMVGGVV

As for `[Zn+2]` [Zn^2+, zinc], in assay [1], the “competition of unlabeled metal ion with ^65Zn^2+ for Aβ” value is “capable of competing off the label”. Moreover, on human Aβ1-40, the “induction of aggregation of human Aβ1-40 among metal ions tested” value was “induce significant aggregation”. Further, the “effects on the activity of trypsin itself” value with trypsin is reported as “negligible”.

For the origin of these results see patent publication US6890727B2, “Diagnostic assay for Alzheimer's disease: assessment of Aβ abnormalities” (The General Hospital Corporation, priority 1994, dated 2005).
